Assay results published in patent US12428386B2, “Sphingosine 1 phosphate receptor modulators” (RECEPTOS LLC, priority 2020, dated 2025).

Legend:
S1P5 = biological target: T1, S1P5 (Homo sapiens, UniProt Q9H228); assay: [35S]-GTPγS binding assay, CHO-S1P receptor membranes, S1P5; assay type: biochemical; conditions: CHO-S1P receptor membrane; for Emax: control S1P, read-out: S1P5 % Efficacy
T1 construct: expressed in transfected cells; host or cells: CHO cell membranes
Protocol: (§1) Binding assays for [^35S]-GTPγS were performed in 96-well non-binding surface plates with a final volume of 200 μL. The test compounds were serial diluted in DMSO and added to assay plates using a Tecan D300E digital printer with a total volume of 0.4 μL. The control sphingosine-1-phosphate (S1P) was prepared separately by preparing a 400 μM stock solution from a 100 nmol pellet of S1P in 10 mM Na2CO3 with 2% β-cyclodextrin. The serial dilution of S1P was done using complete assay buffer (20 mM HEPES, 10 mM MgCl2, 100 mM NaCl, 1 mM EDTA, 0.1% fatty acid free bovine serum albumin [BSA], and 30 μg/mL saponin, pH7.4) and transferred to wells already containing 0.4 μL DMSO. All the wells were then loaded to a total volume of 40 μL of complete assay buffer, except the non-specific binding (NSB) wells. For NSB wells, 40 μL/well of 50 μM GTPγS (Sigma Aldrich, cat# G8634, St. Louis, MO) was added to wells containing 0.4 μL of DMSO. The assay was started by the addition of 120 μL/well of CHO-S1P receptor membrane solution containing 40 μg/mL of membrane protein, 16.67 μM guanosine diphosphate (GDP; Sigma Aldrich, cat# G7127, St. Louis, MO), and 2.5 mg/mL of WGA PVT SPA beads in complete buffer. Assay plates were then sealed and incubated at room temperature with gentle agitation for 30 minutes. Next, 40 μL/well of 1 nM of [^35S]-GTPγS (PerkinElmer, cat# NEG030×250UC, Waltham, MA) in basic assay buffer (20 mM HEPES, 10 mM MgCl2, 100 mM NaCl, and 1 mM EDTA, pH7.4) was added to the assay plates to yield a final concentration of 200 pM and the plates were further incubated for 40 minutes at room temperature with gentle agitation. The assay was terminated by centrifugation of the plates at 1000 rpm for 3 minutes using an Eppendorf 5810R centrifuge (Eppendorf, Hamburg, Germany) and G protein bound radioactivity was quantitated using a MicroBeta2 microplate scintillation counter (PerkinElmer, Waltham, MA).

S1P1 = biological target: T2, S1P1 (Homo sapiens, UniProt P21453); assay: [35S]-GTPγS binding assay, CHO-S1P receptor membranes, S1P1; assay type: biochemical; conditions: CHO-S1P receptor membrane; for Emax: control S1P, read-out: S1P1 % Efficacy
T2 construct: expressed in transfected cells; host or cells: CHO cell membranes
Protocol: as §1

T1 sequence (Q9H228 whole entry, species assumed): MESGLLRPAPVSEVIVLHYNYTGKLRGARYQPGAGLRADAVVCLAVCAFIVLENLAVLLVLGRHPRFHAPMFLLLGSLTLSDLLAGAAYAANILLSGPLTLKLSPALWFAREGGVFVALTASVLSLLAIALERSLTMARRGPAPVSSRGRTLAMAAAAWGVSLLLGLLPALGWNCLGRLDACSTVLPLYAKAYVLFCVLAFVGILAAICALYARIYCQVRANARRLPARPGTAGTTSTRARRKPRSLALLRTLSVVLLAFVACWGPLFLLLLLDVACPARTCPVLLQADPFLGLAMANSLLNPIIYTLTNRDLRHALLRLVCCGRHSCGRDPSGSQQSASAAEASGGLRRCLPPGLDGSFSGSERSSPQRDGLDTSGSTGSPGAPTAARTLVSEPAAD
T2 sequence (P21453 whole entry, species assumed): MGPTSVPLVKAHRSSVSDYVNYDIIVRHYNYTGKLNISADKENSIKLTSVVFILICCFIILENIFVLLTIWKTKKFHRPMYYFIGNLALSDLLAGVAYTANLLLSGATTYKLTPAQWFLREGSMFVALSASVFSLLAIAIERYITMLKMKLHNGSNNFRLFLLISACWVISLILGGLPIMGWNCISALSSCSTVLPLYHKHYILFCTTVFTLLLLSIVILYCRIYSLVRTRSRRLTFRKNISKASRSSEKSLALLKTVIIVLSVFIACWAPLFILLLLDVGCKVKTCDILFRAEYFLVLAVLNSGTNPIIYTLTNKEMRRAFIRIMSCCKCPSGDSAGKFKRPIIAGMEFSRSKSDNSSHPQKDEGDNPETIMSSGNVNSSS

CC(C)OC1=CCc2c1cccc2-c1noc(-c2ccc(OC(C)C)c(C#N)c2)n1 [compound 4, 2-isopropoxy-5-(3-(3-isopropoxy-1H-inden-7-yl)-1,2,4-oxadiazol-5-yl)-benzonitrile]
EC50 (S1P5): 151 nM | Emax (S1P5): 79% | EC50 (S1P1): 7 nM | Emax (S1P1): 86%

CCOC1=CCc2c1cccc2-c1noc(-c2ccc(OC(C)C)c(C#N)c2)n1 [compound 3, 5-(3-(3-ethoxy-1H-inden-7-yl)-1,2,4-oxadiazol-5-yl)-2-isopropoxy-benzonitrile]
EC50 (S1P5): 270 nM | Emax (S1P5): 68% | EC50 (S1P1): 32 nM | Emax (S1P1): 92%

COC1=CCc2c1cccc2-c1noc(-c2ccc(OC(C)C)c(C#N)c2)n1 [compound 2, 2-isopropoxy-5-(3-(3-methoxy-1H-inden-7-yl)-1,2,4-oxadiazolyl)benzonitrile]
EC50 (S1P5): 148 nM | Emax (S1P5): 33% | EC50 (S1P1): 18 nM | Emax (S1P1): 87%
